What was measured:
U87-EGFRvIII cells = test: immunoblot of EGFRvIII/FAK/NF-kB signaling with radiation; type: cell-based, human
Protocol: FIGS. 9A-9C. PDZ1i treatment impairs EGFRvIII and FAK signaling, as well as EGFRvIII-MDA-9 interaction. FIG. 9A. Immunoblot analysis showing expression of mutated EGFR in U87 or U87EGFRvIII cells. FIG. 9B. Cells were treated with either DMSO or PDZ1i 2 hrs prior to radiation. These cells were subsequently seeded on fibronectin-coated plates and cell lysates were collected after 1 hr and analyzed for protein expression. FIG. 9C. Lysates from cells treated with and without radiation or PDZ1i as indicated were analyzed via immunoprecipitation. Anti-MDA-9, top, and anti-EGFR, bottom, were used to pull down associated complexes, and western blotting was performed with the indicated antibodies. Left lanes include IgG and control input samples.
PDZ1i inhibits EGFRvIII-driven signaling in GBM and reduces MMP secretion. EGFR amplification and mutation is both a common and important alteration in GBM. A particular mutation of this receptor, EGFRvIII, is often co-expressed along with EGFR amplification in GBM. […] U87 cells stably expressing EGFRvIII, U87-EGFRvIII (FIG. 9), were treated with PDZ1i prior to radiation. […]
Preparation of whole-cell lysates and Western blotting analysis was performed as described (5). For densitometry evaluation, X-ray films were scanned and analyzed with ImageJ software (NIH).

U1242 cells = test: Proteome Profiler Human Protease Array of conditioned media after radiation; type: cell-based; conditions: 50 μM PDZ1i 2 hrs prior to radiation
Protocol: FIGS. 10A-10L, PDZ1i inhibits key invasion proteins. U1242 cells were treated with either DMSO or 50 μM PDZ1i 2 hrs prior to radiation in serum-free media. After 48 hrs, media was collected analyzed via the Proteome Profiler Human Protease Array Kit (R&D Systems). Relative protein amounts of the indicated proteins were quantified via ImageJ. FIG. 10A, MMP1; FIG. 10B, MMP2; FIG. 10C, MMP3; FIG. 10D, MMP8; FIG. 10E, MMP9; FIG. 10F, MMP13; FIG. 10G. Cathepsin A; FIG. 10H, Cathepsin B; FIG. 10I, Cathepsin C; FIG. 10J, Cathepsin S; FIG. 10K, Cathepsin V; FIG. 10L, ASAM9.
Radiation can enhance the release of important enzymes, including those involved in invasion such as the matrix metalloproteinase family (MMP). We therefore determined if PDZ1i could affect the secretion of invasion-related proteins following radiation therapy. U1242 cells were treated for 2 hours prior to radiation therapy, and their media collected after 48 hours. […]
CM was harvested from an overnight culture of plated cells in serum-free DMEM+F12 media, filtered with […] filters and further concentrated 10-fold on an Amicon Ultra centrifugal filter—3K (Millipore, Billerica, Mass.). Protein levels were analyzed via the Proteome Profiler Human Protease Array Kit (R&D Systems, Minneapolis, Minn.). Relative quantification was performed by densitometry evaluation. X-ray films were scanned and analyzed with ImageJ software (NIH).

## Cc1cc(NC(=O)c2nc3[nH]c4c(c(=O)n3n2)CCC4)c(C)cc1NC(=O)CCc1nnc(-c2ccccc2)o1 [113B7, N-(2,5-dimethyl-4-(3-(5-phenyl-1,3,4-oxadiazol-2-yl)propanamido)phenyl)-8-oxo-5,6,7,8-tetrahydro-4H-cyclopenta[d][1,2,4]triazolo[1,5-a]pyrimidine-2-carboxamide]
U87-EGFRvIII cells; PDZ1i prior to radiation
  FAK activation after radiation: nullified
U87-EGFRvIII cells; radiated and non-radiated cells
  phospho-EGFR: significantly reduced
U1242 cells
  radiation gains in Cathepsin family members and ADAM9: eliminated these gains
U1242 cells; media after 48 hrs
  secreted MMP levels (MMP2, MMP9) after radiation: reduced the levels
